This is an account of results in US11191762B2, “Alkyl substituted triazole compounds as agonists of the APJ Receptor” (priority 2016, dated 2021).

The target of the first experiment is human APJ receptor (Homo sapiens (Human), UniProt P35414). The experiment can be described thus: biochemical. To be noted: [35S]GTPγS binding, membranes from CHO cells stably expressing human APJ receptor; read-out: Activity hAPJ SPA EC50 IP. Type of experiment: biochemical. Here is the method: The human APJ receptor was cloned by polymerase chain reaction and the gene encoding the receptor was subcloned in pFLAG-CMV™-3 expression vector (Sigma, Saint Louis, Mo. USA) in-house at Amgen. A GTPγS binding assay was performed on membranes prepared from CHO cells stably expressing human APJ receptor. The optimum experimental conditions for the concentrations of GDP, MgCl2, and NaCl in the assay buffer were initially determined. The assay was performed in 9 μL assay buffer [20 mM HEPES, pH 7.5, 5 mM MgCl2, 100 mM NaCl and 0.1% (w/v) BSA], 1 μL of diluted test compound (starting with 0.75 mM, 2-fold serial dilution with DMSO, total 22 points), 10 μL of 18 µM GDP (final concentration of 3 μM GDP), 20 μL of […] membrane protein expressing human APJ receptor captured with WGA PS beads (final concentration of 5 μg per well), and 20 μL of 0.3 nM [^35S]GTPγS (final concentration is 0.1 nM [^35S]GTPγS)(Perkin Elmer Life and Analytical Sciences, Waltham USA).
human APJ receptor, sequence (P35414 whole entry): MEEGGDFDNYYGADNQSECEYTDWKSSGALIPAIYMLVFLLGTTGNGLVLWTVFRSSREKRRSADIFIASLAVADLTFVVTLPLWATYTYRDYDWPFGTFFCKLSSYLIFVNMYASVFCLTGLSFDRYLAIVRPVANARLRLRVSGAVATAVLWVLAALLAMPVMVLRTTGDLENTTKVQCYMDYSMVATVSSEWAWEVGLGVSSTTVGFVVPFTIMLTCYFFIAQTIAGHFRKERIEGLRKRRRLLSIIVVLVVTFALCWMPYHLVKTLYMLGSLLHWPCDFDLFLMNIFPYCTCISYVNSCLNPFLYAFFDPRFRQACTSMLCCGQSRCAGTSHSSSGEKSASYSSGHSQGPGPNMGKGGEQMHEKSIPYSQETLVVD
On to `COc1ncnc(OC)c1-n1c(Cc2ccccc2)nnc1NS(=O)(=O)[C@@H](C)[C@H](OC)c1ncc(Cl)cn1` [Example 22.0, (1R,2S)-N-(5-benzyl-4-(4,6-dimethoxy-5-pyrimidinyl)-4H-1,2,4-triazol-3-yl)-1-(5-chloro-2-pyrimidinyl)-1-methoxy-2-propanesulfonamide], for which the concentration for a half-maximal effect (EC50) (commonly the midpoint of the concentration-response curve) turned out to be 120 nM.
Turning to `COc1cccc(OC)c1-n1c(Cc2ccncc2)nnc1NS(=O)(=O)[C@@H](C)[C@H](C)c1ncc(Cl)cn1` [Example 141.0, (2S,3R)-3-(5-Chloro-2-pyrimidinyl)-N-(4-(2,6-dimethoxyphenyl)-5-(4-pyridinylmethyl)-4H-1,2,4-triazol-3-yl)-2-butanesulfonamide], the concentration giving a half-maximal response (EC50) is 100 nM.
In the case of `COc1ccc(Cl)c(-n2c(COC(F)F)nnc2NS(=O)(=O)[C@@H](C)[C@H](OC)c2ncc(Cl)cn2)c1` [Example 160.0], the EC50 came to 21 nM.
For the molecule `COc1cccc(OC)c1-n1c(NS(=O)(=O)[C@@H](C)[C@H](C)c2ncc(Cl)cn2)nnc1C(F)(F)c1ccccn1` [Example 136.0], the EC50 came to 35 nM.
On to `COCc1nnc(NS(=O)(=O)[C@@H](C)[C@H](C)c2ncc(Cl)cn2)n1-c1c(OC)ncnc1OC` [Example 11.0, (2S,3R)-3-(5-chloro-2-pyrimidinyl)-N-(4-(4,6-dimethoxy-5-pyrimidinyl)-5-(methoxymethyl)-4H-1,2,4-triazol-3-yl)-2-butanesulfonamide], for which the EC50 was 88 nM.
For `COCc1nnc(NS(=O)(=O)[C@@H](C)[C@@H](OC(C)C)c2ncc(Cl)cn2)n1-c1c(OC)ncnc1OC` [Example 134.0], the EC50 was 12 nM.
In the case of `CO[C@H](c1ncc(Cl)cn1)[C@H](C)S(=O)(=O)Nc1nnc(CC(F)(F)F)n1C1CCOCC1` [Example 139.0], the EC50 is above 4200 nM.
As to `CO[C@H](c1ncc(Cl)cn1)[C@H](C)S(=O)(=O)Nc1nnc(C)n1C1(C)CC1` [Example 55.0, (1R,2S)-1-(5-chloropyrimidin-2-yl)-1-methoxy-N-(5-methyl-4-(1-methylcyclopropyl)-4H-1,2,4-triazol-3-yl)propane-2-sulfonamide], the EC50 came to 540 nM.
In the case of `COCc1nnc(NS(=O)(=O)[C@@H](C)[C@H](OC)c2ncc(Cl)cn2)n1C1(c2cccnc2)CC1` [Example 140.0, (1R,2S)-1-(5-chloropyrimidin-2-yl)-1-methoxy-N-(5-(methoxymethyl)-4-(1-(pyridin-3-yl)cyclopropyl)-4H-1,2,4-triazol-3-yl)propane-2-sulfonamide], the EC50 is 29 nM.
Consider `COc1ncnc(OC)c1-n1c(CC(C)C)nnc1NS(=O)(=O)[C@@H](C)[C@H](OC)c1ncc(Cl)cn1` [Example 31.0, (1R,2S)-1-(5-chloro-2-pyrimidinyl)-N-(4-(4,6-dimethoxy-5-pyrimidinyl)-5-(2-methylpropyl)-4H-1,2,4-triazol-3-yl)-1-methoxy-2-propanesulfonamide], for which the concentration for a half-maximal effect (EC50) was 7.6 nM.
`COc1cccc(OC)c1-n1c(NS(=O)(=O)[C@@H](C)[C@H](C)c2ncc(C)cn2)nnc1C(F)(F)c1ccccn1` [Example 137.0]: the half-maximal effective concentration (EC50) worked out at 230 nM.
On to `COCc1nnc(NS(=O)(=O)[C@@H](C)[C@H](OC)c2ncc(Cl)cn2)n1-c1c(Cl)cccc1Cl` [Example 157.0], for which the EC50 is above 12500 nM.
For `COCc1nnc(NS(=O)(=O)[C@@H](C)[C@H](C)c2ncc(Cl)cn2)n1-c1cc(OC)ccc1Cl` [Example 162.0], the EC50 was 24 nM.
On to `COc1cccc(OC)c1-n1c(NS(=O)(=O)[C@@H](C)[C@H](C)c2ncc(C)cn2)nnc1[C@@H](OC)c1ccccc1` [Example 19.0, (2S,3R)-N-(4-(2,6-dimethoxyphenyl)-5-((S)-methoxy(phenyl)methyl)-4H-1,2,4-triazol-3-yl)-3-(5-methyl-2-pyrimidinyl)-2-butanesulfonamide], for which the EC50 is 200 nM.
Same read-out and setting: next, `COc1ncnc(OC)c1-n1c(CC(C)(C)C)nnc1NS(=O)(=O)[C@@H](C)[C@H](C)c1ncc(Cl)cn1` [Example 1.0, (2S,3R)-3-(5-chloro-2-pyrimidinyl)-N-(4-(4,6-dimethoxy-5-pyrimidinyl)-5-(2,2-dimethylpropyl)-4H-1,2,4-triazol-3-yl)-2-butanesulfonamide]: 240 nM; `COc1ncnc(OC)c1-n1c(CC(F)(F)F)nnc1NS(=O)(=O)[C@@H](C)[C@H](OC)c1ncc(Cl)cn1` [Example 67.0, (1R,2S)-1-(5-chloropyrimidin-2-yl)-N-(4-(4,6-dimethoxypyrimidine-5-yl)-5-(2.2.2-trifluoroethyl)-4H-1.2.4-triazol-3-yl)-1-methoxypropane-2-sulfonamide]: 230 nM; `COCc1nnc(NS(=O)(=O)[C@@H](C)[C@@H](OC(C)C)c2ncc(C)cn2)n1-c1c(F)cccc1F` [Example 30.0, (1S,2S)-N-(4-(2,6-difluorophenyl)-5-(methoxymethyl)-4H-1,2,4-triazol-3-yl)-1-(1-methylethoxy)-1-(5-methyl-2-pyrimidinyl)-2-propanesulfonamide]: 240 nM.
With `COc1ncnc(OC)c1-n1c(NS(=O)(=O)[C@@H](C)[C@H](O)c2ncc(C)cn2)nnc1C(C)(C)c1ccccc1` [Example 138.0], the EC50 is 860 nM.
Same read-out and setting: with `COCc1nnc(NS(=O)(=O)[C@@H](C)[C@H](OC)c2ncc(Cl)cn2)n1C(COC)COC` [Example 124.0, (1R,2S)-1-(5-Chloro-2-pyrimidinyl)-N-(4-(1,3-dimethoxy-2-propanyl)-5-(methoxymethyl)-4H-1,2,4-triazol-3-yl)-1-methoxy-2-propanesulfonamide] the figure was 85 nM.
On to `COc1ncnc(OC)c1-n1c(COC(F)F)nnc1NS(=O)(=O)[C@@H](C)[C@H](C)c1ncc(Cl)cn1` [Example 127.0, (2S,3R)-3-(5-chloropyrimidin-2-yl)-N-(5-((difluoromethoxy)methyl)-4-(4,6-dimethoxypyrimidin-5-yl)-4H-1,2,4-triazol-3-yl)butane-2-sulfonamide], for which the EC50 was found to be 38 nM.
On the same count and under the same terms, next, `CCCCc1nnc(NS(=O)(=O)[C@@H](C)[C@H](C)c2ncc(C)cn2)n1-c1c(OC)cccc1OC` [Example 176.0]: 1.9 nM; `COCCn1c(COC)nnc1NS(=O)(=O)[C@@H](C)[C@H](OC)c1ncc(Cl)cn1` [Example 156.0]: 520 nM; `CO[C@H](c1ncc(Cl)cn1)[C@H](C)S(=O)(=O)Nc1nnc(CC2CCC2)n1C1CCOCC1` [Example 25.0, (1R,2S)-1-(5-chloro-2-pyrimidinyl)-N-(5-(cyclobutylmethyl)-4-(tetrahydro-2H-pyran-4-yl)-4H-1,2,4-triazol-3-yl)-1-methoxy-2-propanesulfonamide]: 370 nM.
With `COc1cccc(OC)c1-n1c(CC2COC2)nnc1NS(=O)(=O)[C@@H](C)[C@H](C)c1ncc(Cl)cn1` [Example 34.0, (2S,3R)-3-(5-chloro-2-pyrimidinyl)-N-(4-(2,6-dimethoxyphenyl)-5-(3-oxetanylmethyl)-4H-1,2,4-triazol-3-yl)-2-butanesulfonamide], the EC50 stood at 16 nM.
On the same count and under the same terms, with `COCCc1nnc(NS(=O)(=O)[C@@H](C)[C@H](C)c2ncc(Cl)cn2)n1-c1c(OC)cccc1OC` [Example 32.0, (2S,3R)-3-(5-chloro-2-pyrimidinyl)-N-(4-(2,6-dimethoxyphenyl)-5-(2-methoxyethyl)-4H-1,2,4-triazol-3-yl)-2-butanesulfonamide] the figure was 10 nM.

The same experiment, now with this note: read-out: Activity hAPJ SPA EC50 IP.
On to `CCO[C@H](c1ncc(C)cn1)[C@H](C)S(=O)(=O)Nc1nnc(COC)n1-c1c(OC)cccc1OC` [Example 73.0, (1R,2S)-N-(4-(2,6-dimethoxyphenyl)-5-(methoxymethyl)-4H-1,2,4-triazol-3-yl)-1-ethoxy-1-(5-methylpyrimidin-2-yl)propane-2-sulfonamide], for which the EC50 amounted to 37.5 nM.
Turning to `COc1cccc(OC)c1-n1c(CO)nnc1NS(=O)(=O)[C@@H](C)[C@H](OC)c1ncc(Cl)cn1` [Example 64.0, (1R,2S)-1-(5-chloropyrimidin-2-yl)-N-(4-(2,6-dimethoxyphenyl)-5-(hydroxymethyl)-4H-1.2.4-triazol-3-yl)-1-methoxypropane-2-sulfonamide], the EC50 came to 20 nM.
With `COCc1nnc(NS(=O)(=O)[C@@H](C)[C@H](C)c2ncc(C)cn2)n1-c1c(OC)cccc1OC` [Example 61.0, (2S,3R)-N-(4-(2,6-dimethoxyphenyl)-5-(methoxymethyl)-4H-1.2.4-triazol-3-yl)-3-(5-methylpyrimidin-2-yl)butane-2-sulfonamide], the concentration for a half-maximal effect (EC50) is 6.7 nM.
In the case of `COCc1nnc(NS(=O)(=O)[C@@H](C)[C@H](C)c2ccc(Cl)cn2)n1-c1c(OC)cccc1OC` [Example 75.0, (2S,3R)-3-(5-chloropyridin-2-yl)-N-(4-(2,6-dimethoxyphenyl)-5-(methoxymethyl)-4H-1,2,4-triazol-3-yl)butane-2-sulfonamide], the concentration giving a half-maximal response (EC50) turned out to be 3.1 nM.
On to `COCc1nnc(NS(=O)(=O)[C@@H](C)[C@H](C)c2ncc(F)cn2)n1-c1c(OC)cccc1OC` [Example 68.0, (2S,3R)-N-(4-(2,6-dimethoxyphenyl)-5-(methoxymethyl)-4H-1,2,4-triazol-3-yl)-3-(5-fluoropyrimidin-2-yl)butane-2-sulfonamide], for which the concentration for a half-maximal effect (EC50) was found to be 33 nM.
On the same count and under the same terms, next, `COCc1nnc(NS(=O)(=O)[C@@H](C)[C@H](OC)c2ncc(Cl)cn2)n1-c1c(OC)cccc1OC` [Example 12.0, (1R,2S)-1-(5-chloro-2-pyrimidinyl)-N-(4-(2,6-dimethoxyphenyl)-5-(methoxymethyl)-4H-1,2,4-triazol-3-yl)-1-methoxy-2-propanesulfonamide]: 4.8 nM.
